Reference: patent US20110003773A1, “USING FULLERENES TO ENHANCE AND STIMULATE HAIR GROWTH” (Luna Innovations Incorporated, priority 2008, published 2011)

Test system: shaved C57/B6 mice
Assay: Hair growth in shaved C57/B6 mice after injection at the shaved site
Format: in vivo
Details: 300 μl of 1 μg/ml in PBS injected at the shaved site every day for 12 days, vs PBS
Experimental: The backs of C57/B6 mice were shaved bald on the intracapsular part of the back. 300 μl of phosphate buffered saline (PBS) or 300 μl of 1 μg/ml of compound 5 (labelled LnW0033 in FIG. 2) in PBS was injected at the shaved site every day for 12 days.
The backs of C57/B6 mice were shaved bald on the intracapsular part of the back. 300 μl PBS or 300 μl of 1 μg/ml Polyhydroxy-C60 (C60(OH)˜18-24; BuckyUSA, Houston, Tex.; called “Poly C60” in FIG. 3) in PBS was injected at the shaved site every day for 12 days.

Polyhydroxy-C60 was tested, and the “hair growth (photograph at day 12) compared to control” value was “hair growth enhancement”.
